# Laboratory results reported in patent US12144795B2, “Cannabidiol compositions having modified cannabinoid profiles” (priority 2018, dated 2024).
# Experiment: Crash cooling crystallization, XRPD before and after AAC
# Format: physicochemical
# Conditions: for Dissolved at start / Solids after T profile / Solid form by HT-XRPD Evaporation of ML Before: 50 mg/mL
# Protocol: As a variation on the above cooling crystallization experiments, several crash cooling crystallization were performed. In order to modulate the solubility of cannabidiol, crash cooling experiments were performed in solvent mixtures. Clear solutions of 50 mg/mL of cannabidiol were prepared in solvent mixtures and rapidly cooled in an ice bath. Vials were then placed at −20° C. for 48 hours. Precipitated solids and mother liquors were treated as described above for the ordinary cooling crystallization experiments. Only from heptane/pentane cooling did there result in the precipitation of a solid. […] When no XRPD record was generated, the field is defined as “Not Applicable” (N/A) in Table 29.
compound,measurement,setting,value
"C=C(C)[C@@H]1CCC(C)=C[C@H]1c1c(O)cc(CCCCC)cc1O [CBD, (1′R,2′R)-5′-methyl-4-pentyl-2′-(prop-1-en-2-yl)-1′,2′,3′,4′-tetrahydro-[1,1′-biphenyl]-2,6-diol]",Dissolved at start,"1,4-Dioxane/Water (80/20)",Yes
same,Solids after T profile,"1,4-Dioxane/Water (80/20)",No
same,Effect of accelerated aging conditions,40° C./75% RH for two days,no effect on the physical appearance
same,Dissolved at start,"Acetone/2,2,4-Trimethylpentane",Yes
same,Solids after T profile,"Acetone/2,2,4-Trimethylpentane",No
same,Dissolved at start,Acetone/Water (80/20),Yes
same,Solid form by HT-XRPD Evaporation of ML Before,Acetone/Water (80/20),Oily
same,Solids after T profile,Acetone/Water (80/20),No
same,Dissolved at start,Acetonitrile/Water (80/20),Yes
same,Solids after T profile,Acetonitrile/Water (80/20),No
same,Dissolved at start,Chloroform/Hexane (50/50),Yes
same,Solids after T profile,Chloroform/Hexane (50/50),No
same,Dissolved at start,"Ethanol/2,2,4-Trimethylpentane",Yes
same,Solids after T profile,"Ethanol/2,2,4-Trimethylpentane",No
same,Dissolved at start,Ethyl formate/Decane,Yes
same,Solid form by HT-XRPD Evaporation of ML Before,Ethyl formate/Decane,Oily
same,Solids after T profile,Ethyl formate/Decane,No
same,Dissolved at start,Heptane/Pentane (50/50),Yes
same,Solids after T profile,Heptane/Pentane (50/50),Yes
same,Dissolved at start,Isopropanol/Decane (50/50),Yes
same,Solids after T profile,Isopropanol/Decane (50/50),No
same,Dissolved at start,Tetrahydrofuran/Water (80/20),Yes
same,Solid form by HT-XRPD Evaporation of ML Before,Tetrahydrofuran/Water (80/20),Oily
same,Solids after T profile,Tetrahydrofuran/Water (80/20),No
same,Polymorphic form of precipitated solid,"heptane/pentane, crash cooling, −20° C. for 48 hours",same polymorphic form as the starting material Form A
